Our source for the Activity values is ChEMBL document CHEMBL1154703, “Poly-N-methylated amyloid beta-peptide (Abeta) C-terminal fragments reduce Abeta toxicity in vitro and in Drosophila melanogaster” (J Med Chem, 2009).

Activity calls are given as the source filed them. No cut-off for these calls is given here. Non-standard residues stand in square brackets, D forms with d. Residues, ends and D or L forms follow the SMILES beside them. Met(O2) = CS(=O)(=O)CC[C@H](N)C(=O)O; NMeI = CC[C@H](C)[C@H](NC)C(=O)O; NMeL = CN[C@@H](CC(C)C)C(=O)O; NMeV = CN[C@H](C(=O)O)C(C)C; Sar = CNCC(=O)O

Assay [1] can be described thus: Inhibition of fibril formation of Abeta (1-40) assessed as fibril levels at 1:5 molar ratio of Abeta and ligand after 72 hrs by transmission electron microscopy relative to untreated control. Also noted: scale not given: the % may be the effect or the level left.
A short description of assay [2]: Inhibition of Abeta (1-42) assessed as blockade of amyloid-like aggregates at 100 uM by Congo red binding assay.
Assay [3] can be described thus: Reduction of beta-sheet formation of Abeta (1-40) at 1:1 molar ratio of Abeta and ligand during 5 hrs incubation by CD spectroscopy.
A short description of assay [4]: Effect on of Abeta (1-40) assessed as structure content at 5 hrs by CD spectroscopy.
The nature of assay [5]: Inhibition of Abeta (1-40) assessed as blockade of amyloid-like aggregates at 100 uM by Congo red binding assay.
Assay [6] can be described thus: Inhibition of fibril formation of Abeta (1-40) assessed as fibril levels at 1:10 molar ratio of Abeta and ligand after 72 hrs by transmission electron microscopy relative to untreated control. Also noted: scale not given: the % may be the effect or the level left.
Assay [7] in a line: Reduction of beta-sheet formation of Abeta (1-40) at 100 uM during 4 to 5 hrs incubation by CD spectroscopy.
Assay [8] is described as follows: Reduction of beta-sheet formation of Abeta (1-42) at 100 uM during 3 hrs incubation by CD spectroscopy.
The subject of assay [9] is PC-12. The assay can be described thus: Cytoprotection against Abeta (1-42)-induced toxicity in rat PC12 cells at 10 uM after 4 hrs by MTT assay. The assay is classed as functional, cell-based.
Assay [10] is described as follows: Reduction of beta-sheet formation of Abeta (1-42) at 100 uM during 4 hrs incubation by CD spectroscopy.
A short description of assay [11]: Reduction of beta-sheet formation of Abeta (1-40) at 100 uM during 5 hrs incubation by CD spectroscopy.
For assay [12], the system named is Drosophila melanogaster. The assay can be described thus: Effect on life span in wild type Drosophila melanogaster at 300 uM dosed from embryonic stage and throughout adult life. The assay is classed as functional, organism-based.
A short description of assay [13]: Effect on of Abeta (1-42) assessed as unordered structure content after 5 hrs by CD spectroscopy.
Assay [14] in a line: Inhibition of fibril formation of Abeta (1-40) assessed as fibril levels at 1:1 molar ratio of Abeta and ligand after 72 hrs by transmission electron microscopy relative to untreated control. Also noted: scale not given: the % may be the effect or the level left.
The nature of assay [15]: Effect on of Abeta (1-40) assessed as unordered structure content after 5 hrs by CD spectroscopy.
Assay [16] can be described thus: Inhibition of fibril formation of Abeta (1-40) assessed as change in fibril levels at 100 uM by atomic force microscopy relative to untreated control.
The test system of assay [17] is Drosophila melanogaster. The assay can be described thus: Improvement in locomotor activity in transgenic Drosophila melanogaster expressing human Abeta (1-42) at 300 uM dosed from embryonic stage and throughout adult life by climbing assay. The assay is classed as functional, organism-based.
The nature of assay [18]: Inhibition of fibril formation of Abeta (1-40) assessed as change in fibril morphology at 100 uM by atomic force microscopy relative to untreated control.
Assay [19] is described as follows: Reduction of beta-sheet formation of Abeta (1-40) at 1:1 molar ratio of Abeta and ligand during 4 hrs incubation by CD spectroscopy.
The test system of assay [20] is Drosophila melanogaster. The assay can be described thus: Prolongation of life span in transgenic Drosophila melanogaster expressing human Abeta (1-42) at 300 uM dosed from embryonic stage and throughout adult life. Format: functional, organism-based.

In the case of `CC[C@H](C)[C@@H](C(=O)N(C)CC(=O)N(C)[C@@H](CC(C)C)C(=O)N[C@@H](CCS(C)(=O)=O)C(=O)N(C)[C@H](C(=O)N(C)CC(N)=O)C(C)C)N(C)C(C)=O` (Ac-[NMeI][Sar][NMeL][Met(O2)][NMeV][Sar]-NH2), the Activity in [1] was 50%.
`CC[C@H](C)[C@@H](C(=O)NCC(=O)N(C)[C@@H](CC(C)C)C(=O)N[C@@H](CCSC)C(=O)N(C)[C@H](C(=O)NCC(N)=O)C(C)C)N(C)C(C)=O` (Ac-[NMeI]G[NMeL]M[NMeV]G-NH2): the result in assay [2], in [3] and in assay [5] was inactive. Besides, the values for the Activity in assay [4] and in assay [6] were 25% and 50%, respectively. Further, the result in assay [7], in [8] and in assay [9] was Active.
`CC[C@H](C)[C@H](NC(C)=O)C(=O)N(C)CC(=O)N[C@@H](CC(C)C)C(=O)N[C@@H](CCSC)C(=O)N[C@H](C(=O)N(C)CC(N)=O)C(C)C` (Ac-I[Sar]LMV[Sar]-NH2): the result in [2] and in assay [5] was inactive. The Activity in [6] came out at 75%. Also, the outcome in assay [7], in assay [8] and in [9] was Active.
For the molecule `CC(=O)N(C)[C@@H](C)C(=O)N(C)[C@@H](C)C(=O)N(C)[C@@H](C)C(=O)N(C)[C@@H](C)C(=O)N(C)[C@@H](C)C(N)=O`, in assay [1], the Activity was 75%.
As for `CC[C@H](C)[C@H](NC(C)=O)C(=O)NCC(=O)N[C@@H](CC(C)C)C(=O)N[C@@H](CCSC)C(=O)N[C@H](C(=O)NCC(N)=O)C(C)C` (Ac-IGLMVG-NH2), the result in assay [2], in assay [5] and in assay [9] was inactive. Besides, the Activity in assay [4] is 25%; in assay [6], 75%. The outcome in assay [7] and in assay [8] was Active.
Consider `CC[C@H](C)[C@@H](C(=O)N(C)CC(=O)N(C)[C@@H](CC(C)C)C(=O)N[C@@H](CCSC)C(=O)N(C)[C@H](C(=O)N(C)CC(N)=O)C(C)C)N(C)C(C)=O` (Ac-[NMeI][Sar][NMeL]M[NMeV][Sar]-NH2), for which the Activity is 0% in assay [1]; 25% in assay [4]; 0% in [6]; over 50% in assay [13]; 50% in assay [14]; 55% in assay [15]. Besides, the outcome in assay [2], in assay [5], in assay [10], in [11], in assay [16] and in [17] was Active. In addition, the result in assay [18], in assay [19], in assay [9] and in assay [20] was Active. Also, the outcome in assay [12] was inactive.
